In patent publication US20240174684A1, “INHIBITORS OF cGAS ACTIVITY AS THERAPEUTIC AGENTS” (BELLBROOK LABS, LLC, priority 2021, published 2024):
Converted amounts (≈) assume the structure as drawn. “Also recorded” adds a separate entry of the source.

Tests used:
[1] = Metabolic stability in mouse hepatocytes; assay type: in vitro ADME; conditions: read-out: Mouse MS Stability t1/2
Procedure: (§1) ADME studies: Compound A and the compounds of the disclosure were tested for aqueous solubility (KSOL), metabolic stability (human and mouse […]) and permeability (Caco-2 and/or MDR1-MDCK cells) to provide an initial indication of oral bioavailability.
(§2) The favorable physicochemical properties are reflected in promising results in in vitro ADME tests. […] Metabolic stability, which was routinely measured with mouse and human hepatocytes, is outstanding, with t, greater than 2 hours for all of the compounds of the disclosure in which it has been measured. Cell permeability was measured using MDCK cells expressing human MDR1 (P-glycoprotein) to assess passive permeability as well as active transport out of the cell. […] Numerous compounds in Table 1 meet these permeability criteria, which is consistent with their design for TPSA <140 Å^2 and increased lipophilicity.
The MDCK-MDR1 permeability A ->B is shown in Table 2 below, where A represents 5-10 cm/s×10^−6; B represents 1-5 cm/s×10^−6; and C represents <1 cm/ss×10^−6. The metabolic stability half time, in both mouse and human hepatocytes, is also shown in Table 2 below, where A′ represents 100-200 minutes; B′ represents 200-300 minutes; and C′ represents >300 minutes.

[2] = Kinetic aqueous solubility (KSOL) in PBS, pH 7.4; assay type: physicochemical; conditions: aqueous buffer, kinetic from dmso stock
Procedure: as §1, §2

mouse cGAS = mouse cGAS (Mus musculus, UniProt Q8C6L5); experiment: Transcreener cGAS enzymatic assay with mouse cGAS; assay type: biochemical; conditions: standard conditions, read-out: IC50 with mcGAS
Procedure: Structural, biochemical and biophysical analysis and selectivity profiling: Potency and MOA studies, including Mn^2+ sensitivity, were performed using the Transcreener cGAS enzymatic assay, which is manufactured at BellBrook Labs (Fitchburg, Wisconsin, USA). This homogenous cGAS enzymatic assay was developed with fluorescence polarization (FP) and time-resolved Forster resonance energy transfer (TR-FRET) readouts, as described in International Patent Publication WO 2020/142729, incorporated by reference herein in its entirety. Plates are read on a PHERAstar FSX multimode reader (BMG). The compounds of the disclosure were tested for inhibition of cGAS ([…]) using this cGAS enzymatic assay under standard conditions (100 μM ATP and GTP, 62.5 nM bp ISD, 60 minute reactions), high ATP and GTP (1 mM) to mimic physiological conditions, in the presence of 200 μM MnCl2, and with mouse cGAS under standard conditions.
Potency with mcGAS is important for vivo efficacy studies and represents a challenge for lead development because mcGAS shares only 57% amino acid identity with human enzyme and there are significant functional differences.

[3] = system: IFNβ production in THP-1 cells; experiment: IFNβ ELISA in THP-1 cells; assay type: cell-based, human
Procedure, shortened: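 THP-1 cells stimulated with dsDNA or cGAMP (STING activation bypassing cGAS) in the presence of compound; IFNβ secreted into medium quantified by ELISA. IC50 values reported in potency bins.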

cGAS = cGAS (Homo sapiens, UniProt Q8N884); experiment: Cellular thermal shift assay (CETSA) in THP-1 cells; assay type: cell-based; conditions: heat treatment 51.5 °C
Procedure: Panel A is an image of a western blot of the stabilization measure; panel B is a bar graph of the stabilization measure. Heat treatment was conducted at 51.5 ° C.
(§3) CETSA was also used to confirm that the compounds are binding to cGAS in cells; THP-1 cells are used for this analysis. Compounds were tested in dose response mode by incubating with cells for 1.5 hours at 37° C., followed by pelleting and re-suspending in PBS, heating to 51.5° C. for 3 min and cooling to room temp. Cells were then lysed, debris, including denatured cGAS, was pelleted and the supernatant was analyzed for soluble cGAS by Western Blot using anti-cGAS primary Ab (Cell Signaling). Band intensity was analyzed using Image J software. Stimulation with cGAMP directly activates STING, circumventing cGAS; this was used to determine if compounds had effects on downstream components of cGAS/STING signaling. The IFN-6 ELISA was used as the primary measure of cellular potency and selectivity (Table 3) and used the reporter gene assays for assessing off-target activity with other pattern recognition receptors.

TLR4 pathway = experiment: Reporter gene assay NFKB (TLR4); assay type: cell-based; conditions: at concentrations above 25 μM
Procedure: as §3
(§4) The reporter gene assays were used to assess off-target activity with IRF30Luc (RIG-1) or NFKB (TLR4); CellTiter Glo (ATP levels) and Presto Blue (reducing equivalents) were used to assess cytotoxicity; all assays were performed in dose response mode. […] The inventors recently began using human PBMCs to assess cellular potency in a more physiologically relevant context.

[4] = Cytotoxicity, CellTiter Glo (ATP levels) and Presto Blue (reducing equivalents); assay type: cell-based; conditions: CellTiter Glo, Presto Blue, dose response
Procedure: as §4

Sequence of cGAS (Q8N884 whole entry): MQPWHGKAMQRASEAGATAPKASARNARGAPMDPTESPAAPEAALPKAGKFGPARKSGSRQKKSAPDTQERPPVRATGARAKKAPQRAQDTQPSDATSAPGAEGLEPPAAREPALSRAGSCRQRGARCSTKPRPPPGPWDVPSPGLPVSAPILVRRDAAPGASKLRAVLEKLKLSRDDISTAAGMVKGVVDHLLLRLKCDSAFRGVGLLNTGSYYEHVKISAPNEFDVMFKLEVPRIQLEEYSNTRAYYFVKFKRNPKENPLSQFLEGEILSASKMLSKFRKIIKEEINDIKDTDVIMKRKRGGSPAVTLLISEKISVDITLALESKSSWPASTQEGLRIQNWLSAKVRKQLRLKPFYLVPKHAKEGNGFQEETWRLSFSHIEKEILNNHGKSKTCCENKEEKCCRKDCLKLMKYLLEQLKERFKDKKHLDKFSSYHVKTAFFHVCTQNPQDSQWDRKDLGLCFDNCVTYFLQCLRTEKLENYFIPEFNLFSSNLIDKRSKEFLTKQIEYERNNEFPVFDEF
Sequence of mouse cGAS (Q8C6L5 whole entry): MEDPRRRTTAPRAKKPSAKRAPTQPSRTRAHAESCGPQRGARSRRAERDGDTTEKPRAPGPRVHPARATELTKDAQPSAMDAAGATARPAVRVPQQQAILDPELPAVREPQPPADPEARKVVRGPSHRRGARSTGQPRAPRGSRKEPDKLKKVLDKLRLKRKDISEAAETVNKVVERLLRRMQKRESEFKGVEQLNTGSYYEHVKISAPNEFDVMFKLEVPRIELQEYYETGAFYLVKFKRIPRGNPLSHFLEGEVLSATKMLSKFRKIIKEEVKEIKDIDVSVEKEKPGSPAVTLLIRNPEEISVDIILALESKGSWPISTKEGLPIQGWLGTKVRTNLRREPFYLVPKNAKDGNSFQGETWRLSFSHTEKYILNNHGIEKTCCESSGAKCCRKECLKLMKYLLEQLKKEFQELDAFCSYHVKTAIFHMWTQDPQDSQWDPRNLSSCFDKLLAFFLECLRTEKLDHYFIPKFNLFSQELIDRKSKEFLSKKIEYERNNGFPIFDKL

half-life [1]: > 5 h | solubility kinetic [2]: 8 µM (≈ 4.05 µg/mL) | IC50 (mouse cGAS): 4.23 µM | IC50 ([3]; Homo sapiens, THP-1 cells): < 1 µM | Cellular IC50 relative to biochemical IC50 ([3]; cellular assays vs cGAS enzymatic assay at 1 mM ATP/GTP): essentially identical
SMILES: Cc1nc(N2C[C@@H](CC(=O)Nc3ccc(-c4ccccc4)cc3)C[C@H]2C(=O)O)c2oc3ccccc3c2n1 [Compound 5, (2S,4R)-4-(2-([1,1′-biphenyl]-4-ylamino)-2-oxoethyl)-1-(2-methylbenzofuro[3,2-d]pyrimidin-4-yl)pyrrolidine-2-carboxylic acid]
Stabilization of cGAS in cells (CETSA) (cGAS): dose dependent stabilization; also recorded: intracellular target engagement | Off-target activity with the TLR4 pathway (TLR4 pathway): some off-target activity | Concentration showing cytotoxicity [4]: above 25 μM
